From ChEMBL document CHEMBL2321868, “The discovery of novel potent trans-3,4-disubstituted pyrrolidine inhibitors of the human aspartic protease renin from in silico three-dimensional (3D) pharmacophore searches” (J Med Chem, 2013)

Tests used:
[1] = target: T1, Renin (Homo sapiens, UniProt P00797); assay: Inhibition of human recombinant renin expressed in CHO cells using RE(EDANS)IHPFHLVIHTK(Dabcyl)R as substrate incubated for 1 hr prior to substrate addition measured after 2 hrs by FRET-based enzymatic assay
T1 sequence (P00797 whole entry): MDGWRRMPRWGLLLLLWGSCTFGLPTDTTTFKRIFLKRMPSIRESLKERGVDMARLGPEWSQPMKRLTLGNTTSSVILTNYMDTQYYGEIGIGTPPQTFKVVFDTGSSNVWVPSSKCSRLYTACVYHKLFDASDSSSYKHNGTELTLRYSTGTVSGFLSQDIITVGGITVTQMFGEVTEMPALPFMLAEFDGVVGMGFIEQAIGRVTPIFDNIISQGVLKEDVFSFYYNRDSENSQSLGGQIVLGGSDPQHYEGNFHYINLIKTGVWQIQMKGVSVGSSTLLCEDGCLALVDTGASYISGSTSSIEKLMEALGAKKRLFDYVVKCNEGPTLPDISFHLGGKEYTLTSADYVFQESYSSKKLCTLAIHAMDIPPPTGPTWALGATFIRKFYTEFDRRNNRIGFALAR

[2] = target: T2, Gastricsin (Homo sapiens, UniProt P20142); assay: Inhibition of human recombinant pepsin C expressed in Escherichia coli using Dabcyl-E-R-Nle-F-L-S-F-P-EDANS as substrate incubated for 1 hr prior to substrate addition measured after 1 hr by FRET-based enzymatic assay
T2 sequence (P20142 whole entry): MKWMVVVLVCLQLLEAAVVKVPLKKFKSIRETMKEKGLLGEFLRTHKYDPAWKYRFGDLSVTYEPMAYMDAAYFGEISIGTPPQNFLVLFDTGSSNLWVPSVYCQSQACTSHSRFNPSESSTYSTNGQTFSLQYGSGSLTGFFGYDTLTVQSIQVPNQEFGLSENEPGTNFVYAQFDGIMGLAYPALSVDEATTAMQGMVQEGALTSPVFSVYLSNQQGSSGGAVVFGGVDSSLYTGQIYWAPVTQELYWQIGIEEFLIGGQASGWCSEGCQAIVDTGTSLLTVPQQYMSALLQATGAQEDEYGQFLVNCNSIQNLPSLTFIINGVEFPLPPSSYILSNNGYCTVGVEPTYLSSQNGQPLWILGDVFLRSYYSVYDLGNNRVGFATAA

[3] = target: Cathepsin D (Homo sapiens, UniProt P07339); assay: Inhibition of human recombinant cathepsin-D expressed in baculovirus-infected insect sf9 cells using Ac- E-D(EDANS)-KPILFFRLG-K(Dabcyl)-E-Amid as substrate incubated for 1 hr prior to substrate addition measured after 1 hr by FRET-based enzymatic assay
[4] = Inhibition of human recombinant pepsin A expressed in Escherichia coli using Dabcyl-E-R-Nle-F-L-S-F-P-EDANS as substrate incubated for 1 hr prior to substrate addition measured after 1 hr by FRET-based enzymatic assay
[5] = target: T3, Cathepsin E (Homo sapiens, UniProt P14091); assay: Inhibition of human recombinant cathepsin-E expressed in Escherichia coli using Ac- E-D(EDANS)-KPILFFRLG-K(Dabcyl)-E-Amid as substrate incubated for 1 hr prior to substrate addition measured after 1 hr by FRET-based enzymatic assay
T3 sequence (P14091 whole entry): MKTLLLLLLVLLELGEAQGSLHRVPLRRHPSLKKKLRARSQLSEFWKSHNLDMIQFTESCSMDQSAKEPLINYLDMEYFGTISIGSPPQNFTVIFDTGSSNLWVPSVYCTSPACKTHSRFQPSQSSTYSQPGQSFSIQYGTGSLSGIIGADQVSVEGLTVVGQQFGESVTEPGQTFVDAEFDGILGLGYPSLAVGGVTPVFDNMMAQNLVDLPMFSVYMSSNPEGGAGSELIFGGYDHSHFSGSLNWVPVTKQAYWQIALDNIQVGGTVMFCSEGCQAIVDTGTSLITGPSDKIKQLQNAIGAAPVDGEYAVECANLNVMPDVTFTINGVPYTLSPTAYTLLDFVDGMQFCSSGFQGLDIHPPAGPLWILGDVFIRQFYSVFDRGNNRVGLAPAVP

[6] = target: T4, Renin (Homo sapiens) (UniProt P00797); assay: Inhibition of human recombinant renin expressed in CHO cells using RE(EDANS)IHPFHLVIHTK(Dabcyl)R as substrate at 10 uM incubated for 1 hr prior to substrate addition measured after 2 hrs by FRET-based enzymatic assay
T4 sequence (whole entry): T1 sequence (P00797 whole entry)

Cathepsin D, sequence (P07339 65-162 limits assumed): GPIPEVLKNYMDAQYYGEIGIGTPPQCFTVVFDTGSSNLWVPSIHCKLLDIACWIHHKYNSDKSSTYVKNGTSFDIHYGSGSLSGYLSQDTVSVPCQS
Cathepsin D, sequence (P07339 169-412 limits assumed): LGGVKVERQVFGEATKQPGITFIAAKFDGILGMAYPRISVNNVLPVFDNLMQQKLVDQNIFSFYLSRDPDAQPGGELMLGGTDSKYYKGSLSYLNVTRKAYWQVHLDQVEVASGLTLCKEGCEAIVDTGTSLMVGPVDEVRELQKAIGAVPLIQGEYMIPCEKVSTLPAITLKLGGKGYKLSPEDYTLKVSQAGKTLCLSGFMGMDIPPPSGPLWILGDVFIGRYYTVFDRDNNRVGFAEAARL

SMILES | IC50 [1] [µM] | other results
Clc1ccc(N(C[C@@H]2CNC[C@H]2Cc2ccccc2)c2ccccc2)cc1 | 7.6 | IC50 [2]: 29 µM; IC50 [3]: 11 µM; IC50 [4]: 4.5 µM; IC50 [5]: 11 µM
c1ccc([C@H]2CCNC[C@@H]2OCc2ccc3ccccc3c2)cc1 | – | inhibition [6]: 34%
Clc1ccc(N(CC2CNCC2Cc2ccccc2)c2ccccc2)cc1 (racemic) | 14 | –
Clc1ccc(N(Cc2ccccc2)CC2CNCC2Cc2ccccc2)cc1 (racemic) | 4.1 | –

Second part, led by results:

IC50 [1] [µM] | SMILES | other results
1.7 | COCCCOc1cc(C(=O)N(CC2CNCC2Cc2ccccc2)c2ccc(Cl)cc2)ccc1OC (racemic) | –
0.45 | COCCCOc1cc(C(=O)N(CC2CNCC2Cc2ccccc2)C(C)C)ccc1OC (racemic) | –
7.7 | COCCCOc1cc(CN(CC2CNCC2Cc2ccccc2)C(C)C)ccc1OC (racemic) | –
1.9 | COCCCOc1cc(C(=O)N(CC2CNCC2Cc2ccccc2)c2ccccc2)ccc1OC (racemic) | –
9.8 | COCCCOc1cc(CN(CC2CNCC2Cc2ccccc2)c2ccc(Cl)cc2)ccc1OC (racemic) | –
2.7 | COCCCOc1cc(C(=O)N(C[C@H]2CNC[C@@H]2Cc2ccccc2)C(C)C)ccc1OC | –
18 | Clc1ccc(N(C[C@H]2CNC[C@@H]2Cc2ccccc2)c2ccccc2)cc1 | –
